Measurements from PubChem BioAssay AID2745 (NMMLSC, 2010).
Active and inactive are the calls of the source. No rule for the calls is given here.

Test: concentration series on yeast TOR reporter LAP4 – cell-based, MLPCN hits, flow cytometry, dose response (AID 2745);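 also: yeast exposed to compound for three hours at 30 degrees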
Details: S. cerevisiae LAP4-GFP reporter, flow cytometry fluorescence; at 33 µM (top of the series)

Compound | LAP4-GFP fluorescence (kMESF)
COc1ccc2c(/C=C/c3cc[n+](C)cc3)c[nH]c2c1 | 3.71 kMESF (inactive)
CN(C)/C=C/C(=O)c1ccc(-c2ccc(Cl)cc2Cl)o1 | 4.39 kMESF (inactive)
CC1(c2ccccc2)ON(c2ccccc2C(F)(F)F)C1=O (stereo unspecified) | 5.97 kMESF (inactive)
O=C(Nc1nnc(-c2ccc(F)cc2)o1)c1cccc([N+](=O)[O-])c1 | 6.91 kMESF (inactive)
O=[N+]([O-])c1cc(CN2CCN(c3ccccc3)CC2)c(O)c2ncccc12 | 14.7 kMESF (inactive)
Cc1cc(C)c(OCC(=O)Nc2nc(-c3ccccn3)cs2)c(C)c1 | 5.78 kMESF (inactive)
COc1ccc(NC(=O)/C(C#N)=C/c2ncc([N+](=O)[O-])n2C)c(OC)c1 | 9.76 kMESF (inactive)
Cc1ccccc1OCC(=O)NNC(=S)NC(=O)c1ccco1 | 6.11 kMESF (inactive)
O=C1/C(=C\c2ccc(O)c(O)c2)SC(=S)N1Cc1ccccc1 | -9.95 kMESF (inactive)
CC(=O)N(C(C)=O)c1ncnc2c1c(-c1ccc(Cl)cc1)nn2C(C)(C)C | 3.97 kMESF (inactive)
CS(=O)(=O)N1N=C(c2ccccc2)CC1c1ccc2c(c1)OCO2 (stereo unspecified) | -20.2 kMESF (inactive)
Cc1cc2ccccn2c1C(=O)c1ccc([N+](=O)[O-])o1 | -3.89 kMESF (inactive)
Cn1ncc2c(O/N=C(\N)c3ccc(C(C)(C)C)cc3)ncnc21 | 5.61 kMESF (inactive)
CC(C)(C)C(=O)NC(=S)NNC(=O)c1sc2ccccc2c1Cl | 8.89 kMESF (inactive)
COc1ccc(-c2cc(C(F)(F)F)nc(S(C)(=O)=O)n2)cc1 | 10.6 kMESF (inactive)
O=C(Oc1oc(-c2ccco2)nc1C=Nc1ccccc1)c1ccoc1 | 8.01 kMESF (inactive)
CCOC(=O)C1=C(O)c2ccccc2C(=O)/C1=C\c1ccc(C)cc1 | -35.8 kMESF (inactive)
N#C/C(=C\c1ccccn1)c1nc2ccccc2s1 | 15.1 kMESF (inactive)
O=C(O)c1cccc(S(=O)(=O)Nc2ccc(S(=O)(=O)N3CCOCC3)cc2)c1 | 3.38 kMESF (inactive)
Cc1ccc(S(=O)(=O)N2CCCC2C(=O)NCc2ccncc2)cc1 (stereo unspecified) | 4.58 kMESF (inactive)
CC(Oc1ccc2ccccc2c1)C(=O)NNC(=S)NC(=O)c1ccco1 (stereo unspecified) | 13.9 kMESF (inactive)
Cc1ccc(NC(=O)c2cc(N3C(=O)C=CC3=O)ccc2Cl)cc1C | 4.75 kMESF (inactive)

Compound | LAP4-GFP fluorescence (kMESF)
CC(Oc1cc2oc(=O)c3c(c2cc1Cl)CCC3)C(=O)NCCN1CCOCC1 (stereo unspecified) | 2.43 kMESF (inactive)
O=[N+]([O-])c1ccc(Sc2nc3ccccc3o2)c([N+](=O)[O-])c1 | 4.88 kMESF (inactive)
O=C(CS(=O)c1ccccc1[N+](=O)[O-])Oc1ccc(Br)cc1 (stereo unspecified) | 21.8 kMESF (inactive)
CCCCC1OC23CCCCC2C(C#N)(C(=N)O3)C1(C#N)C#N (stereo unspecified) | 3.98 kMESF (inactive)
CN(C)c1ccc(/C=C/c2cc[n+](C)cc2)cc1 | 1.33 kMESF (inactive)
Cc1ccc2c(c1)c(/C=C/c1cc[n+](C)cc1)c(C)n2C | 4.11 kMESF (inactive)
O=C1N(c2ccccc2C(F)(F)F)O[C@@]1(c1ccccc1)C1CCCC1 | 2.93 kMESF (inactive)
COc1ccccc1N1C(=O)c2cccc3c(C(=O)O)ccc(c23)C1=O | 6.85 kMESF (inactive)
O=c1c2cc(Br)ccc2nc(-c2ccc([N+](=O)[O-])cc2)n1O | 6.81 kMESF (inactive)
O=C(Nc1nnc(-c2ccc(F)cc2)o1)c1cc(Cl)sc1Cl | 6.71 kMESF (inactive)
CC(C)[C@]1(c2ccccc2)ON(c2ccccc2C(F)(F)F)C1=O | 2.53 kMESF (inactive)
CCOc1ccccc1/C=c1\sc2ncnn2c1=O | 19 kMESF (inactive)
CC(=O)[C@]1(O)Cc2c(O)c3c(c(O)c2[C@@H](O[C@H]2C[C@H](N)[C@H](O)[C@H](C)O2)C1)C(=O)c1ccccc1C3=O | 9.67 kMESF (inactive)
CCc1nc2ccccc2c(=O)n1NC(=O)c1c(O)c2cccc3c2n(c1=O)CCC3 | 3.04 kMESF (inactive)
Cc1c(Br)c(=O)oc2c(Br)c(O)c(O)cc12 | 2.43 kMESF (inactive)
Oc1cc(-c2ccc(N3CCCCC3)nc2)cc2cccnc12 | 4.15 kMESF (inactive)
Cc1ccccc1[C@]1(C)ON(c2ccccc2C(F)(F)F)C1=O | 3.24 kMESF (inactive)
O=C(O)c1ccc(COc2ccccc2C=C2C(=O)c3ccccc3C2=O)cc1 | 4.11 kMESF (inactive)
CC(=O)Oc1cccc(N2C(=O)c3cccc4c([N+](=O)[O-])ccc(c34)C2=O)c1 | 5.16 kMESF (inactive)
NC(=O)COc1ccc(C(=O)/C=C2/C(=O)Nc3ccccc32)cc1 | 6.78 kMESF (inactive)
Cc1ccc(S(=O)(=O)N2CC(C(=O)O)=CC[C@H]2c2ccc(Cl)cc2)cc1 | 4.05 kMESF (inactive)
CCC(=O)Nc1ccc(NC(=O)c2cc3ccccc3o2)c(OC)c1 | 3.41 kMESF (inactive)

Compound | LAP4-GFP fluorescence (kMESF)
Cc1ccccc1C(=O)NNC(=S)NC(=O)c1ccc(Cl)cc1Cl | 8.22 kMESF (inactive)
O=c1oc(/C=C/c2ccc([N+](=O)[O-])s2)nc2ccccc12 | 12.6 kMESF (inactive)
Cc1ccc(/C=c2\sc3nc(-c4cccs4)nn3c2=O)o1 | 7.32 kMESF (inactive)
O=c1cc(-c2ccccc2)cc(-c2ccccc2)n1O | 5.91 kMESF (inactive)
CCOC(=O)c1c(C)oc2c1c(C(c1ccncc1)N1CCOCC1)c(O)c1ccccc12 (stereo unspecified) | 6.29 kMESF (inactive)
O=S(=O)(/N=C(\Sc1ccc(Cl)cc1)c1ccccc1)c1ccccc1 | 12.4 kMESF (inactive)
O=C(O)c1cc[c]([Hg][Cl])cc1 | 8.49 kMESF (inactive)
O=C(O)c1ccn2c(C(=O)c3ccccc3)c(-c3ccccc3)cc2c1 | 7.25 kMESF (inactive)
O=C1N(c2ccccc2C(F)(F)F)OC1(Cc1ccccc1)c1ccccc1 (stereo unspecified) | 4.48 kMESF (inactive)
O=C(OCn1ncc(Br)c(Br)c1=O)c1ccccc1Cl | 10.5 kMESF (inactive)
Cc1ccc(N=Nc2ccc(O)c3ncccc23)cc1 | 4.95 kMESF (inactive)
O=C(/C=C/c1cccc([N+](=O)[O-])c1)c1ccc([N+](=O)[O-])o1 | 2.78 kMESF (inactive)
O=C(COc1ccccc1)N1CCN(c2ncnc3c2cnn3-c2ccccc2)CC1 | 3.38 kMESF (inactive)
O=C(COc1c(Br)cc(Br)c2cccnc12)N1CCc2ccccc2C1 | 12.3 kMESF (inactive)
CC1=C(C)/C(=N\OS(=O)(=O)c2ccccc2)C=CC1=O | 9.73 kMESF (inactive)
COc1ccc(Cl)cc1C(Nc1cccnc1)c1ccc2cccnc2c1O (stereo unspecified) | 19.3 kMESF (inactive)
CN1C(=O)/C(=N\OC(=O)c2cccc3ccccc23)c2ccccc21 | 7.11 kMESF (inactive)
CC(=O)N(\C=C/C=C/C=C1\Sc2ccccc2C1=O)c1ccccc1 | 14.2 kMESF (inactive)
COc1ccc(OC)c(S(=O)(=O)ON2C(=O)c3ccccc3C2=O)c1 | 1.75 kMESF (inactive)
CN(C)c1ccc(N=Cc2nc(-c3ccccc3)oc2OC(=O)c2cccc(Cl)c2)cc1 | 3.99 kMESF (inactive)
CCCCCn1c(=O)c(C(=O)Nc2nc3ccccc3[nH]2)c(O)c2ccccc21 | 2.43 kMESF (inactive)
O=C1c2cccc3c([N+](=O)[O-])ccc(c23)C(=O)N1O | 3.64 kMESF (inactive)

Compound | LAP4-GFP fluorescence (kMESF)
O=C(c1ccc(Cl)c([N+](=O)[O-])c1)N1CCN(c2ccccc2)CC1 | 8.26 kMESF (inactive)
CCN(CC)c1ccc(/C=C2/C(=O)c3ccc(C(=O)O)cc3C2=O)cc1 | 13.8 kMESF (inactive)
CC[C@]1(c2ccccc2OC)ON(c2ccccc2C(F)(F)F)C1=O | 7.52 kMESF (inactive)
Cc1cc(C)c2c(c1)/C(=C/C(=O)c1ccc(Br)s1)C(=O)N2 | 6.56 kMESF (inactive)
CC1(C)OC(c2ccccc2)=C/C(=C/C=C2C(=O)NC(=S)NC2=O)O1 | 3.03 kMESF (inactive)
Cc1[nH][nH]c(=O)c1C(c1ccc(-c2ccc(Cl)cc2)o1)c1c(C)[nH][nH]c1=O | 6.67 kMESF (inactive)
CCN1/C(=C/c2ccc3cc(C)ccc3[n+]2CC)Sc2ccc3sccc3c21 | 10.7 kMESF (inactive)
c1ccc(-c2csc(Nc3cccnc3)n2)nc1 | 3.67 kMESF (inactive)
Cc1cccc(OCCN2CSC(=S)N(C)C2)c1 | 9.83 kMESF (inactive)
Cc1ccnc(N2C(=O)c3cccc4c([N+](=O)[O-])ccc(c34)C2=O)c1 | 33.2 kMESF (inactive)
CCOC(=O)CSC1=NC(=O)/C(=C/c2ccc(OC)cc2)S1 | 6.28 kMESF (inactive)
COc1ccccc1[C@@]1(C)ON(c2ccccc2C(F)(F)F)C1=O | 7.08 kMESF (inactive)
Cc1[nH][nH]c(=O)c1C(c1ccc(-c2ccc(Cl)c(Cl)c2)o1)c1c(C)[nH][nH]c1=O | 6.01 kMESF (inactive)
COCCN1C(=O)/C(=C/c2ccc(N3CCCC3)cc2C)SC1=S | 7.02 kMESF (inactive)
Cc1cc(O)c(C(=O)/C=C/c2c(F)c(F)c(F)c(F)c2F)c(=O)o1 | 7 kMESF (inactive)
C=CCN1C(=O)/C(=C/c2ccc(-c3ccc(F)cc3)o2)SC1=S | 15 kMESF (inactive)
CCCc1nnc(NC(=O)c2c(O)c3cccc4c3n(c2=O)CCC4)s1 | 0.3 kMESF (inactive)
CCC(=O)Oc1oc(-c2ccccc2)nc1C=Nc1ccc(C)cc1 | 4.73 kMESF (inactive)
COc1ccc(C(=O)/C=C2/C(=O)Nc3ccccc32)c(OC)c1 | 10.1 kMESF (inactive)
O=C1N(c2ccccc2C(F)(F)F)O[C@@]1(c1ccccc1)C1CCCCC1 | 2.73 kMESF (inactive)
